One assay addresses Histone deacetylase 1 (Homo sapiens, UniProt Q13547). Description: Inhibition of HDAC1 expressed in 293T cells. It is filed as cell-based.
The next assay concerns the target Histone deacetylase 4 (Homo sapiens, UniProt P56524). Put plainly: Inhibition of HDAC4 expressed in 293T cells. Format: cell-based.
Assay [1] deals with T1, Protein deacetylase HDAC6 (Homo sapiens, UniProt Q9UBN7).
T1 sequence (Q9UBN7 whole entry): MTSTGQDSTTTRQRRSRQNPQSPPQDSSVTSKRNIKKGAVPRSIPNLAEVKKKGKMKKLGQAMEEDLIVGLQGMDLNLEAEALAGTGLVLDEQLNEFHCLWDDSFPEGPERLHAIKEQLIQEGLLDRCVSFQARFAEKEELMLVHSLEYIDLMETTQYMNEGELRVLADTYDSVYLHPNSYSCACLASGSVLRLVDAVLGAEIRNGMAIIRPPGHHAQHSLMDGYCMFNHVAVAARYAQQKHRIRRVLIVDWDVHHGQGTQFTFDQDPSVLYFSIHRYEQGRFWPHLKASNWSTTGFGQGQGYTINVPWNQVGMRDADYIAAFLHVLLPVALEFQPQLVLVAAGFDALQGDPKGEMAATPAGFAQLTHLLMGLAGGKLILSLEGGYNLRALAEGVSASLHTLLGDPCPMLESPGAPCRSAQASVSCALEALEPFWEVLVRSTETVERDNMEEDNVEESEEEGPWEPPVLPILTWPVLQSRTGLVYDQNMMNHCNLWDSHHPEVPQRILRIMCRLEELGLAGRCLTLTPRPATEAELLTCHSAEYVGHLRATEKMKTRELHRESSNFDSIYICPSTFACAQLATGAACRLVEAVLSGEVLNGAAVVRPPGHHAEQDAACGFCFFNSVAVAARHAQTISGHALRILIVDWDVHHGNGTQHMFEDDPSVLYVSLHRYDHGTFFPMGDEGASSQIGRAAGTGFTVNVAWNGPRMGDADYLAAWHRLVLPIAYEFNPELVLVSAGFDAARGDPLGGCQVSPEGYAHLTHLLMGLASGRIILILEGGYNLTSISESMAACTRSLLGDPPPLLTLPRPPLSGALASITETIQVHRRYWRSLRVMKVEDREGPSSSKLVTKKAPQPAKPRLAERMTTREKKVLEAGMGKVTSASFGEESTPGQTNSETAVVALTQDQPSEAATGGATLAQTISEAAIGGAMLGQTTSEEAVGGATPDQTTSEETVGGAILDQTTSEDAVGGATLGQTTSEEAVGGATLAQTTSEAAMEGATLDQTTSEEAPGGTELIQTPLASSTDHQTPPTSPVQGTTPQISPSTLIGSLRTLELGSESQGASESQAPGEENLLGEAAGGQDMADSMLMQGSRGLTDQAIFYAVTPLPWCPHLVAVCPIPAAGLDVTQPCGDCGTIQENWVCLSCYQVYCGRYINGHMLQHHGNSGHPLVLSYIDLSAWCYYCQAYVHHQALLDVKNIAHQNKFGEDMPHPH
Put plainly: Inhibition of HDAC6 expressed in 293T cells. It is filed as cell-based.

Assay [2] in a line: Selectivity of IC50 for HDAC6 to IC50 for HDAC1.

Non-standard residues stand in square brackets, D forms with d. Residues, ends and D or L forms follow the SMILES beside them. Ahp(7-SS(2-pyridyl)) = N[C@@H](CCCCCSSc1ccccn1)C(=O)O; Aib = CC(C)(N)C(=O)O

Drawing on ChEMBL document CHEMBL1140755, “Interaction of aliphatic cap group in inhibition of histone deacetylases by cyclic tetrapeptides” (Bioorg Med Chem, 2008), this text covers IC50 and Ratio IC50 for 6 compounds.

Sequence of Histone deacetylase 1 (Q13547 whole entry): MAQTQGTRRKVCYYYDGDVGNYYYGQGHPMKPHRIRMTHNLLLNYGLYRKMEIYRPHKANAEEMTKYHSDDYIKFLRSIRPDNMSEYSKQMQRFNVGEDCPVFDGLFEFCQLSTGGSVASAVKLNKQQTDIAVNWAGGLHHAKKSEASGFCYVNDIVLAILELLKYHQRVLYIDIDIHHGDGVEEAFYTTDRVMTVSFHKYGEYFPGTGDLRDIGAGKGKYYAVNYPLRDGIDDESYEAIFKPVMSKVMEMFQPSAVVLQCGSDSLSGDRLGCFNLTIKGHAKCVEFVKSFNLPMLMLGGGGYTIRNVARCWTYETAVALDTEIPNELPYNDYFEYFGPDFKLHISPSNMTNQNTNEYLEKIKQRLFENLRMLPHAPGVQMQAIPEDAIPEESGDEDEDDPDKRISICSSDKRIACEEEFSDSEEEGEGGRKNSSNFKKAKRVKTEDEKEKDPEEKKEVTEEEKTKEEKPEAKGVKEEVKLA
Sequence of Histone deacetylase 4 (P56524 whole entry): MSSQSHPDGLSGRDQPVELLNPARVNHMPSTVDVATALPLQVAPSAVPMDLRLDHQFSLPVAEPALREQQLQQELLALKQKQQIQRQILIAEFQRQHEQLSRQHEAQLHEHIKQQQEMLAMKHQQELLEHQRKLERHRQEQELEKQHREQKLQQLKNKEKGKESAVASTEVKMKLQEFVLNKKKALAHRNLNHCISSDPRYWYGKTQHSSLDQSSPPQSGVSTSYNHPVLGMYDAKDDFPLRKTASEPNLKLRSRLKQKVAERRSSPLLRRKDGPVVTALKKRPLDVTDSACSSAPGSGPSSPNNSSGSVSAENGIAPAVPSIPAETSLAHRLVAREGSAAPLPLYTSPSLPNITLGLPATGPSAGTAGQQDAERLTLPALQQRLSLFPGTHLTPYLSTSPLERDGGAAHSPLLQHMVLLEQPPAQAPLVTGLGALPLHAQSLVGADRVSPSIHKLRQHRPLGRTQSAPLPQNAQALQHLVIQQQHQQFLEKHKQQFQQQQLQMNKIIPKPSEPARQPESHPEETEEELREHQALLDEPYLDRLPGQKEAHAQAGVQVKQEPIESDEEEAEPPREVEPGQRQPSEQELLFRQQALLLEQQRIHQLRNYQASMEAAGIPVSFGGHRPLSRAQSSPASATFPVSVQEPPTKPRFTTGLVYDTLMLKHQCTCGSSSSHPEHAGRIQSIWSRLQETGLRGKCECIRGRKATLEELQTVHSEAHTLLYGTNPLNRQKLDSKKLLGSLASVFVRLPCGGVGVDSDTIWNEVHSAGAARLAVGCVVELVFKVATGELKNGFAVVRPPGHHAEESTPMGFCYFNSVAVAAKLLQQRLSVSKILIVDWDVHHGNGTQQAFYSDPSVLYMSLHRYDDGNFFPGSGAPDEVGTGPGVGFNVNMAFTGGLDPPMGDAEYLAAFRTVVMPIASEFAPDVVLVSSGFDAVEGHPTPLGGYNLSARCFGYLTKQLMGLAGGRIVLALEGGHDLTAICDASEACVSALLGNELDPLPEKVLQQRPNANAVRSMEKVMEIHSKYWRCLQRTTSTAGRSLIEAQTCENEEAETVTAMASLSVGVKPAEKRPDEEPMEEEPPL

Turning to `CCCC[C@@H]1NC(=O)C(C)(C)NC(=O)[C@H](CCCCCSSc2ccccn2)NC(=O)[C@H]2CCCN2C1=O`, the half-inhibitory concentration (IC50) on Histone deacetylase 1 is 38 nM; at Histone deacetylase 4, 24 nM; in assay [1], 280 nM.

In the case of `CC1(C)NC(=O)[C@H](CCCCCSSc2ccccn2)NC(=O)[C@H]2CCCN2C(=O)[C@H](Cc2ccccc2)NC1=O` (cyclo([Aib]F[dP][Ahp(7-SS(2-pyridyl))])), the Ratio IC50 in assay [2] is 10.3. The IC50 is 39 nM at Histone deacetylase 1, 18 nM against Histone deacetylase 4 and 404 nM in assay [1].

With `C[C@@H]1NC(=O)C(C)(C)NC(=O)[C@H](CCCCCSSc2ccccn2)NC(=O)[C@H]2CCCN2C1=O` (cyclo(A[dP][Ahp(7-SS(2-pyridyl))][Aib])), the half-inhibitory concentration (IC50) at Histone deacetylase 1 worked out at 94 nM; against Histone deacetylase 4, 52 nM; in assay [1], 430 nM.

For `CC(C)C[C@@H]1NC(=O)C(C)(C)NC(=O)[C@H](CCCCCSSc2ccccn2)NC(=O)[C@H]2CCCN2C1=O`, the results for the IC50 (against Histone deacetylase 1; against Histone deacetylase 4; in assay [1]) were 58 nM, 33 nM and 230 nM, respectively.

For `CC[C@H](C)[C@@H]1NC(=O)C(C)(C)NC(=O)[C@H](CCCCCSSc2ccccn2)NC(=O)[C@H]2CCCN2C1=O`, the IC50 turned out to be 38 nM against Histone deacetylase 1, 23 nM against Histone deacetylase 4 and 310 nM in assay [1].

In the case of `O=C1N[C@@H]2CCCCCCCCCCCC[C@H](NC2=O)C(=O)N2CCC[C@@H]2C(=O)N[C@H]1CCCCCSSc1ccccn1`, the Ratio IC50 in assay [2] came out at 140. For the same compound, the IC50 against Histone deacetylase 1 was 35 nM; on Histone deacetylase 4, 20 nM; in assay [1], 4900 nM.

Usually IC50 stands for the concentration that inhibits the measured activity by half.
